This passage reports T/C results from PubChem BioAssay AID248 (DTP/NCI, 2004).

Values joined by “and” are separate entries in the source; they are usually repeats but may differ in a detail not shown here. Equal entries are not always repeated. Inconclusive results and toxic doses are left out. Square brackets hold non-standard residues; d marks the D form. Peptide text beside a SMILES is read from it. * marks the point of attachment. ξ: configuration not given here. Tos = Cc1ccc(S(=O)(=O)*)cc1; ξS = NC(CO)C(=O)O

The test concerns L1210 leukemia ip in BDF1 mice, survival T/C. The experiment in a line: NCI In Vivo Anticancer Drug Screen. Data for tumor model L1210 Leukemia (intraperitoneal) in B6D2F1 (BDF1) mice. Particulars: higher = longer survival. The method, boiled down:
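Transplanted-tumor mice were given test agent; controls received vehicle only. Survival readings from the two groups were divided (treated over control).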

Where [1] appears, read: endpoint: mean survival time, dose: 100.0 mg/kg/injection, schedule: Q01DX009 (ip), vehicle: saline with Tween-80.
[2] abbreviates: endpoint: mean survival time, dose: 100.0 mg/kg/injection, schedule: Q04DX003 (ip), vehicle: saline with Tween-80.
The mark [3] stands for this setting: endpoint: mean survival time, dose: 200.0 mg/kg/injection, schedule: Q04DX003 (ip), vehicle: saline with Tween-80.
Where [4] appears, read: endpoint: mean survival time, dose: 400.0 mg/kg/injection, schedule: Q04DX003 (ip), vehicle: saline with Tween-80.
Where [5] appears, read: endpoint: mean survival time, dose: 100.0 mg/kg/injection, schedule: Q01DX001 (ip), vehicle: Klucel (hydroxypropylcellulose) (HPC).
Setting [6] is: endpoint: mean survival time, dose: 200.0 mg/kg/injection, schedule: Q01DX001 (ip), vehicle: Klucel (hydroxypropylcellulose) (HPC).
Setting [7] is: endpoint: mean survival time, dose: 100.0 mg/kg/injection, schedule: Q01DX001 (ip), vehicle: saline.
The mark [8] stands for this setting: endpoint: mean survival time, dose: 200.0 mg/kg/injection, schedule: Q01DX001 (ip), vehicle: saline.
The mark [9] stands for this setting: endpoint: mean survival time, dose: 100.0 mg/kg/injection, schedule: Q01DX009 (ip), vehicle: Klucel (hydroxypropylcellulose) (HPC).
Setting [10] is: endpoint: mean survival time, dose: 100.0 mg/kg/injection, schedule: Q04DX003 (ip), vehicle: Klucel (hydroxypropylcellulose) (HPC).
Where [11] appears, read: endpoint: mean survival time, dose: 200.0 mg/kg/injection, schedule: Q04DX003 (ip), vehicle: Klucel (hydroxypropylcellulose) (HPC).
[12] abbreviates: endpoint: mean survival time, dose: 400.0 mg/kg/injection, schedule: Q04DX003 (ip), vehicle: Klucel (hydroxypropylcellulose) (HPC).
Setting [13] is: endpoint: mean survival time, dose: 100.0 mg/kg/injection, schedule: Q04DX002 (ip), vehicle: saline with Tween-80.
[14] abbreviates: endpoint: mean survival time, dose: 100.0 mg/kg/injection, schedule: Q01DX009 (ip), vehicle: saline.
Setting [15] is: endpoint: mean survival time, dose: 200.0 mg/kg/injection, schedule: Q01DX009 (ip), vehicle: saline.
Setting [16] is: endpoint: mean survival time, dose: 400.0 mg/kg/injection, schedule: Q01DX009 (ip), vehicle: saline.

As for `COc1ccc2c(ccc3oc([N+](=O)[O-])cc32)c1`, the T/C was 100 % of control (endpoint: median survival time, dose: 12.5 mg/kg/injection, schedule: Q01DX009 (ip), vehicle: Klucel (hydroxypropylcellulose) (HPC)); 95 % of control (endpoint: median survival time, dose: 25.0 mg/kg/injection, schedule: Q01DX009 (ip), vehicle: Klucel (hydroxypropylcellulose) (HPC)); 101 % of control (endpoint: median survival time, dose: 50.0 mg/kg/injection, schedule: Q01DX009 (ip), vehicle: Klucel (hydroxypropylcellulose) (HPC)); 108 % of control (endpoint: median survival time, dose: 100.0 mg/kg/injection, schedule: Q01DX009 (ip), vehicle: Klucel (hydroxypropylcellulose) (HPC)); 106 % of control (endpoint: median survival time, dose: 200.0 mg/kg/injection, schedule: Q01DX009 (ip), vehicle: Klucel (hydroxypropylcellulose) (HPC)).

Regarding `O=C(/C=C/c1ccc(F)cc1)c1ccc(Cl)cc1`, the T/C under setting [1] is 101 % of control; the T/C under setting [2] was 96 % of control; the T/C (endpoint: mean survival time, dose: 200.0 mg/kg/injection, schedule: Q01DX009 (ip), vehicle: saline with Tween-80) is 92 % of control; the T/C under setting [3] is 90 % of control; the T/C (endpoint: mean survival time, dose: 400.0 mg/kg/injection, schedule: Q01DX009 (ip), vehicle: saline with Tween-80) is 103 % of control; the T/C under setting [4] is 94 % of control.

As for `FC(F)(F)c1nnnn1Cc1ccccc1`, the T/C (endpoint: mean survival time, dose: 50.0 mg/kg/injection, schedule: Q04DX002 (ip), vehicle: saline) is 93 % of control; the T/C (endpoint: mean survival time, dose: 100.0 mg/kg/injection, schedule: Q04DX002 (ip), vehicle: saline) was 101 % of control; the T/C (endpoint: mean survival time, dose: 200.0 mg/kg/injection, schedule: Q04DX002 (ip), vehicle: saline) is 101 % of control.

Regarding `COC(=O)C(Br)C(=O)OC`, the T/C is 97 % of control (endpoint: mean survival time, dose: 12.5 mg/kg/injection, schedule: Q04DX002 (ip), vehicle: saline with Tween-80) and 97 % of control (endpoint: mean survival time, dose: 25.0 mg/kg/injection, schedule: Q04DX002 (ip), vehicle: saline with Tween-80).

In the case of `Nc1nc(N)c(CCCOc2ccccc2Cl)c(N)n1`, the T/C by setting is: under setting [5], 102 % of control; under setting [6], 102 % of control.

Consider `CN/C([S-])=N/N=C/C(=N/N=C(\[S-])NC)c1ccccc1.[Zn+2]`, for which the T/C was 101 % of control (endpoint: mean survival time, dose: 6.25 mg/kg/injection, schedule: Q04DX002 (ip), vehicle: Klucel (hydroxypropylcellulose) (HPC)) and 97 % of control (endpoint: mean survival time, dose: 12.5 mg/kg/injection, schedule: Q04DX002 (ip), vehicle: Klucel (hydroxypropylcellulose) (HPC)).

Take `CCC1(C)N=C(N)Nc2nc3ccccc3n21` (stereo unspecified): the T/C under setting [7] is 96 % of control and the T/C under setting [8] is 94 % of control.

For `COc1cccc(C[P+](C/C=C/c2ccccc2)(c2ccccc2)c2ccccc2)c1`, the T/C (endpoint: mean survival time, dose: 6.25 mg/kg/injection, schedule: Q04DX003 (ip), vehicle: Klucel (hydroxypropylcellulose) (HPC)) was 109 % of control; the T/C (endpoint: mean survival time, dose: 12.5 mg/kg/injection, schedule: Q04DX003 (ip), vehicle: Klucel (hydroxypropylcellulose) (HPC)) was 88 % of control; the T/C (endpoint: mean survival time, dose: 25.0 mg/kg/injection, schedule: Q04DX003 (ip), vehicle: Klucel (hydroxypropylcellulose) (HPC)) was 97 % of control.

For the molecule `Cc1cccc[n+]1CC(=O)c1ccc(-c2ccc(C(=O)C[n+]3ccccc3)cc2)cc1`, the T/C reads like this: (endpoint: mean survival time, dose: 0.04 mg/kg/injection, schedule: Q04DX003 (ip), vehicle: saline) 102 % of control; (endpoint: mean survival time, dose: 0.08 mg/kg/injection, schedule: Q04DX003 (ip), vehicle: saline) 104 % of control; (endpoint: mean survival time, dose: 0.15 mg/kg/injection, schedule: Q04DX003 (ip), vehicle: saline) 97 % of control.

Consider `OCCCNc1nc2cc(Cl)ccc2c2ccc(Cl)cc12`, for which the T/C is, setting by setting: under setting [9], 90 % of control; under setting [10], 88 % of control; under setting [11], 97 % of control; under setting [12], 103 % of control.

`Cc1cccc(C(O)C(=O)O)c1` (stereo unspecified): the T/C runs as follows: (endpoint: mean survival time, dose: 75.0 mg/kg/injection, schedule: Q01DX001 (ip), vehicle: acetone) 94 % of control; (endpoint: mean survival time, dose: 150.0 mg/kg/injection, schedule: Q01DX001 (ip), vehicle: acetone) 92 % of control.

Consider `C=CCC(Cl)(C(=O)OC)C(=O)OC`, for which the T/C under setting [2] was 91 % of control, the T/C under setting [3] was 89 % of control and the T/C under setting [4] is 94 % of control.

Regarding `Cc1cc(C)c(CSC(=N)N)c(C)c1`, the T/C is 88 % of control (endpoint: mean survival time, dose: 25.0 mg/kg/injection, schedule: Q04DX002 (ip), vehicle: Klucel (hydroxypropylcellulose) (HPC)); 92 % of control (endpoint: mean survival time, dose: 50.0 mg/kg/injection, schedule: Q04DX002 (ip), vehicle: Klucel (hydroxypropylcellulose) (HPC)); 100 % of control and 89 % of control (endpoint: mean survival time, dose: 100.0 mg/kg/injection, schedule: Q04DX002 (ip), vehicle: Klucel (hydroxypropylcellulose) (HPC)).

For the molecule `O=C(C[n+]1cccc2ccccc21)c1ccc([N+](=O)[O-])cc1`, the T/C under setting [13] was 109 % of control.

For the molecule `NCc1cccn1OCc1ccccc1`, the T/C by setting is: (endpoint: mean survival time, dose: 25.0 mg/kg/injection, schedule: Q01DX009 (ip), vehicle: Klucel (hydroxypropylcellulose) (HPC)) 108 % of control; (endpoint: mean survival time, dose: 50.0 mg/kg/injection, schedule: Q01DX009 (ip), vehicle: Klucel (hydroxypropylcellulose) (HPC)) 108 % of control; under setting [9], 152 % of control.

`COc1cc2c(cc1OC)-c1cc3ccc(OC)c(OC)c3c[n+]1CC2`: the T/C reads like this: (endpoint: mean survival time, dose: 6.25 mg/kg/injection, schedule: Q04DX003 (ip), vehicle: saline) 105 % of control; (endpoint: mean survival time, dose: 12.5 mg/kg/injection, schedule: Q04DX003 (ip), vehicle: saline) 101 % of control; (endpoint: mean survival time, dose: 25.0 mg/kg/injection, schedule: Q04DX003 (ip), vehicle: saline) 103 % of control.

On to `Cc1ccc(S(=O)(=O)NC(CO)C(=O)NCC(=O)O)cc1` (stereo unspecified) (Tos-[ξS]-Gly-OH), for which the T/C under setting [14] is 103 % of control, the T/C under setting [15] was 97 % of control and the T/C under setting [16] is 91 % of control.

For the molecule `NC(=S)NC(N)=S`, the T/C reads like this: under setting [2], 94 % of control; under setting [3], 96 % of control; under setting [4], 96 % of control.

Consider `Cc1ccc(C)c(OC2CCCCC2=O)c1` (stereo unspecified), for which the T/C is 100 % of control under setting [7]; 100 % of control under setting [8]; 91 % of control (endpoint: mean survival time, dose: 400.0 mg/kg/injection, schedule: Q01DX001 (ip), vehicle: saline).

As to `CCCCP(=S)(N1CCCCC1)N1CCCCC1`, the T/C is 95 % of control (endpoint: mean survival time, dose: 100.0 mg/kg/injection, schedule: Q04DX003 (ip), vehicle: saline); 97 % of control (endpoint: mean survival time, dose: 200.0 mg/kg/injection, schedule: Q04DX003 (ip), vehicle: saline); 86 % of control (endpoint: mean survival time, dose: 400.0 mg/kg/injection, schedule: Q04DX003 (ip), vehicle: saline).

As for `Cc1ccc(S(=O)(=O)Nc2ccc([N+](=O)[O-])cc2OS(=O)(=O)c2ccc(C)cc2)cc1`, the T/C is, setting by setting: under setting [14], 97 % of control; under setting [15], 101 % of control; under setting [16], 95 % of control.

Take `Cc1ccc(C(=O)/C=C2/SS/C(=C/C(=O)c3ccc(C)cc3)S2)cc1`: the T/C runs as follows: (endpoint: mean survival time, dose: 50.0 mg/kg/injection, schedule: Q04DX003 (ip), vehicle: Klucel (hydroxypropylcellulose) (HPC)) 100 % of control; under setting [5], 92 % of control; under setting [10], 97 % of control; under setting [6], 95 % of control; under setting [11], 106 % of control; (endpoint: mean survival time, dose: 400.0 mg/kg/injection, schedule: Q01DX001 (ip), vehicle: Klucel (hydroxypropylcellulose) (HPC)) 98 % of control. Also, the T/C under setting [12] is 110 % of control.

With `CCCCC(CC)CCC(C)O` (stereo unspecified), the T/C runs as follows: (endpoint: mean survival time, dose: 50.0 mg/kg/injection, schedule: Q01DX009 (ip), vehicle: saline with Tween-80) 96 % of control; under setting [1], 94 % of control; under setting [2], 108 % of control; under setting [3], 95 % of control.

Turning to `CCOC(=O)c1ccc(NC(=S)Nc2ncccc2C)cc1`, the T/C was 103 % of control under setting [13]; 103 % of control (endpoint: mean survival time, dose: 200.0 mg/kg/injection, schedule: Q04DX002 (ip), vehicle: saline with Tween-80); 95 % of control (endpoint: mean survival time, dose: 400.0 mg/kg/injection, schedule: Q04DX002 (ip), vehicle: saline with Tween-80).
